According to patent US9682995B2, “Amino-substituted isothiazoles” (BAYER PHARMA AKTIENGESELLSCHAFT, priority 2013, dated 2017):

Legend:
Test in all cases: Kinase Profiling (KINOMEscan)
Type in all cases: binding
[1] = target: 456 kinases (of these 395 non-mutant kinases) (Homo sapiens, UniProt Q96GD4); settings: AURKB; 10 μM
[2] = target: 456 kinases (of these 395 non-mutant kinases) (Homo sapiens, UniProt P48730); settings: CSNK1D; 10 μM
[3] = target: 456 kinases (of these 395 non-mutant kinases) (Homo sapiens, UniProt P54764); settings: EPHA4; 10 μM
456 kinases (of these 395 non-mutant kinases) (Homo sapiens, UniProt P54764), sequence (P54764 20-986 limits assumed, change not shown): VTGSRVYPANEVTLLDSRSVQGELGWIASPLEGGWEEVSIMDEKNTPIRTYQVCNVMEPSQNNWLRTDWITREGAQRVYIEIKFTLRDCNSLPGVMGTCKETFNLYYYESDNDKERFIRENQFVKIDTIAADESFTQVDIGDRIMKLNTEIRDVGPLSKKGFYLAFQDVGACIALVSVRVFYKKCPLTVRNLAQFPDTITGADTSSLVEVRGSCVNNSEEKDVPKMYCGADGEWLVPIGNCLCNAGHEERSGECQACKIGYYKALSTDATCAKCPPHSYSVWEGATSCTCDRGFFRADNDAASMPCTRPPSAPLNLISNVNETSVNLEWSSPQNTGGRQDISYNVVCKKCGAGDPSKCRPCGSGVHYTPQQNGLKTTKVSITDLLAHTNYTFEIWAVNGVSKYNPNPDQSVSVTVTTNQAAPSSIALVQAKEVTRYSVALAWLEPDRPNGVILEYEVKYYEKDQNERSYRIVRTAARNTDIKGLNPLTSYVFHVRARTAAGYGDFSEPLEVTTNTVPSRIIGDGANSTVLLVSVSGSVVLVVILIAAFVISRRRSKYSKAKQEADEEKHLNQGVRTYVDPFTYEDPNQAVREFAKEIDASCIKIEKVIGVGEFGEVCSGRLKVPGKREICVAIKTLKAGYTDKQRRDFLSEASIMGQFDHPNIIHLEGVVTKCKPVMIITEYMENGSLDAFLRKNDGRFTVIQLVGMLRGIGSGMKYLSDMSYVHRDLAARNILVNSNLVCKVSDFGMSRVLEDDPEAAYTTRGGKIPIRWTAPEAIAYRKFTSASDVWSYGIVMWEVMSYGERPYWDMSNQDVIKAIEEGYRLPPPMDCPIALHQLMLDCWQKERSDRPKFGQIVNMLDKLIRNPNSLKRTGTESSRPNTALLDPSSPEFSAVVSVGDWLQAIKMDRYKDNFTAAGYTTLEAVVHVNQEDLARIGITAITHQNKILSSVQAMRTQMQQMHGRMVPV

[4] = target: 456 kinases (of these 395 non-mutant kinases) (Homo sapiens, UniProt Q9NRP7); settings: STK36; 10 μM
[5] = target: 456 kinases (of these 395 non-mutant kinases) (Homo sapiens, UniProt Q00537); settings: PCTK2; 10 μM
[6] = target: 456 kinases (of these 395 non-mutant kinases) (Homo sapiens, UniProt Q9H4A3); settings: WNK1; 10 μM
[7] = target: 456 kinases (of these 395 non-mutant kinases) (Homo sapiens, UniProt P31152); settings: ERK4; 10 μM
[8] = target: 456 kinases (of these 395 non-mutant kinases) (Homo sapiens, UniProt P00519, Q252H); settings: 10 μM
[9] = target: 456 kinases (of these 395 non-mutant kinases) (Homo sapiens, UniProt P51451); settings: BLK; 10 μM
456 kinases (of these 395 non-mutant kinases) (Homo sapiens, UniProt P51451), sequence (P51451 2-505 limits assumed, change not shown): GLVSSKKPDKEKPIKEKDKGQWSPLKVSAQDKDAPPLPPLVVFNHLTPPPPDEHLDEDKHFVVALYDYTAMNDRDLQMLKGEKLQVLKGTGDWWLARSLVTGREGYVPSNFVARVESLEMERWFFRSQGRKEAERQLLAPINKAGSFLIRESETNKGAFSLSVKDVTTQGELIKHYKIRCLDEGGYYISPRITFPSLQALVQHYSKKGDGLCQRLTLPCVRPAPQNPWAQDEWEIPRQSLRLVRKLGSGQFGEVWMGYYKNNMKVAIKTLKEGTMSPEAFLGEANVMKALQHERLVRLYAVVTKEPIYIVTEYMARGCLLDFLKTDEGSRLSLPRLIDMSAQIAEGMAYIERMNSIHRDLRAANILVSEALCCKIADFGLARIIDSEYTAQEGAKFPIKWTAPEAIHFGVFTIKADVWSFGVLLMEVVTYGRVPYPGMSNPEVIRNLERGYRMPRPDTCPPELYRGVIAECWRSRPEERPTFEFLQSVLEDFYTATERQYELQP

[10] = target: 456 kinases (of these 395 non-mutant kinases) (Homo sapiens, UniProt Q12852); settings: DLK; 10 μM
[11] = target: 456 kinases (of these 395 non-mutant kinases) (Homo sapiens, UniProt Q8TBX8); settings: PIP5K2C; 10 μM
456 kinases (of these 395 non-mutant kinases) (Homo sapiens, UniProt Q8TBX8), sequence (Q8TBX8 2-421 limits assumed, change not shown): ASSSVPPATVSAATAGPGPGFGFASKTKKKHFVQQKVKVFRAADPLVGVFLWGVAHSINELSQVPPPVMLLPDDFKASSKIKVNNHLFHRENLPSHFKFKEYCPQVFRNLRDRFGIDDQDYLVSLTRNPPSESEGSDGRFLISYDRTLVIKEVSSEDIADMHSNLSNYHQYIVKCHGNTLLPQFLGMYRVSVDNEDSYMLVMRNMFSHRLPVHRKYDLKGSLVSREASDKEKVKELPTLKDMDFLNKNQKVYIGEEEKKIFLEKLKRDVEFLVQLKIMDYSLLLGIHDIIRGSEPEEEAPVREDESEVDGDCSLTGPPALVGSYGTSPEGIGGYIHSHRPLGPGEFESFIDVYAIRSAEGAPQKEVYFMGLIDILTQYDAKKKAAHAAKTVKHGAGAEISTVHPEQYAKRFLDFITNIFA

[12] = target: 456 kinases (of these 395 non-mutant kinases) (Homo sapiens, UniProt P46734); settings: MEK3; 10 μM
[13] = target: 456 kinases (of these 395 non-mutant kinases) (Homo sapiens, UniProt P36897); settings: TGFBR1; 10 μM
[14] = target: 456 kinases (of these 395 non-mutant kinases) (Homo sapiens, UniProt P30291); settings: WEE1; 10 μM
[15] = target: 456 kinases (of these 395 non-mutant kinases) (Homo sapiens, UniProt P36888); settings: 10 μM
456 kinases (of these 395 non-mutant kinases) (Homo sapiens, UniProt P36888), sequence (P36888 27-993 limits assumed, stated change not applied): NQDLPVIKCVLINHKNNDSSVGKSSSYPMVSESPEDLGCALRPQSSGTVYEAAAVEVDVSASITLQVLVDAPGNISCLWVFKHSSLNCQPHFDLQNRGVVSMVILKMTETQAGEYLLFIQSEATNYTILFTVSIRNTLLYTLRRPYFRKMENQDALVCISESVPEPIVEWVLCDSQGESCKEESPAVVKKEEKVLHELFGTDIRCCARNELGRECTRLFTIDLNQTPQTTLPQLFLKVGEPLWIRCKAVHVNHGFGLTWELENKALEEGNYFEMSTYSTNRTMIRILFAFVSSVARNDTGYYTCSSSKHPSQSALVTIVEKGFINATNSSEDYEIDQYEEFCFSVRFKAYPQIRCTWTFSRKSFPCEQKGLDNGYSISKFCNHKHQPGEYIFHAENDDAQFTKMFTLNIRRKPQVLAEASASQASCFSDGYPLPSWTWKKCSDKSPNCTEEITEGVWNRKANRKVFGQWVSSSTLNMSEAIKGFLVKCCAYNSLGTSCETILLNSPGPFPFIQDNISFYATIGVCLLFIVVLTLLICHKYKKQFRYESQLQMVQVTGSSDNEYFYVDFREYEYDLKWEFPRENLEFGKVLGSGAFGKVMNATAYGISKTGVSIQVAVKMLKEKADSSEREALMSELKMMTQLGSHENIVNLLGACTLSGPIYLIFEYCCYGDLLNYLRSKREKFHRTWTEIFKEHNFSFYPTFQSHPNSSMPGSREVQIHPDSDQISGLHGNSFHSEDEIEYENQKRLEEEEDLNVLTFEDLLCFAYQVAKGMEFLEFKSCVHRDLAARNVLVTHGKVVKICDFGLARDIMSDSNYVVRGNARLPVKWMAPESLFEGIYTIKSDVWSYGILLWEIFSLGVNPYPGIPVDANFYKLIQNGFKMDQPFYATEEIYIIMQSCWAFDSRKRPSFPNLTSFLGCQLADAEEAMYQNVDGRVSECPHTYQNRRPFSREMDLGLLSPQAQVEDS

[16] = target: 456 kinases (of these 395 non-mutant kinases) (Homo sapiens, UniProt P10721, V559D); settings: KIT(V559D); 10 μM
456 kinases (of these 395 non-mutant kinases) (Homo sapiens, UniProt P10721, V559D), sequence (P10721 26-976 V559D limits assumed): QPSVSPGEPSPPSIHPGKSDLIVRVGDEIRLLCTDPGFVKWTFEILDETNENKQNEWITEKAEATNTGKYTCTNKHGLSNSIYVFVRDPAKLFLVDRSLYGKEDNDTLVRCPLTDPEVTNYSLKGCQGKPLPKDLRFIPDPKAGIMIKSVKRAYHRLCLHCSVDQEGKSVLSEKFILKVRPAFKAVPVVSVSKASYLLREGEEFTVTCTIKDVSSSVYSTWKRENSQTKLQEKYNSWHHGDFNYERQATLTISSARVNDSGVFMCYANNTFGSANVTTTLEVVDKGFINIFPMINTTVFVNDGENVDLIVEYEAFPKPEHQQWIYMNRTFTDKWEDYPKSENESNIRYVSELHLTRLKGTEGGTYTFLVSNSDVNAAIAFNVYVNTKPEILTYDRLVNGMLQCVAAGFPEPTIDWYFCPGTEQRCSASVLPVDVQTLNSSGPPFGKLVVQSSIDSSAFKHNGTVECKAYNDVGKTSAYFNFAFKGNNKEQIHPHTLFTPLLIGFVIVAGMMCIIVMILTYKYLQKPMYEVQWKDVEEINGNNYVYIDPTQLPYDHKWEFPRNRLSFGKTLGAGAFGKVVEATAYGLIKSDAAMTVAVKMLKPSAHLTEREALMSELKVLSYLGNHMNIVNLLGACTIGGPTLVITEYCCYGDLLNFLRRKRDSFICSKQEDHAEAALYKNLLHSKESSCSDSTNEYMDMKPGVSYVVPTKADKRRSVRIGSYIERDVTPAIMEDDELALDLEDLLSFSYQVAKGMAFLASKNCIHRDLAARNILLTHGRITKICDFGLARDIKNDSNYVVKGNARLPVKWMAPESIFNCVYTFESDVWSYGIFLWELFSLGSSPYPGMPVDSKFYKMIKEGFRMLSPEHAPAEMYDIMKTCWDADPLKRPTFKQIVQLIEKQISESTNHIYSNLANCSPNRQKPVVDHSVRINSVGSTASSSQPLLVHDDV

[17] = target: 456 kinases (of these 395 non-mutant kinases) (Homo sapiens, UniProt P42336, I800L); settings: PIK3CA(I800L); 10 μM
[18] = target: 456 kinases (of these 395 non-mutant kinases) (Homo sapiens, UniProt P57059); settings: SIK; 10 μM
[19] = target: 456 kinases (of these 395 non-mutant kinases) (Homo sapiens, UniProt Q9NRM7); settings: LATS2; 10 μM
[20] = target: 456 kinases (of these 395 non-mutant kinases) (Homo sapiens, UniProt P29376); settings: LTK; 10 μM
456 kinases (of these 395 non-mutant kinases) (Homo sapiens, UniProt P29376), sequence (P29376 17-864 limits assumed, change not shown): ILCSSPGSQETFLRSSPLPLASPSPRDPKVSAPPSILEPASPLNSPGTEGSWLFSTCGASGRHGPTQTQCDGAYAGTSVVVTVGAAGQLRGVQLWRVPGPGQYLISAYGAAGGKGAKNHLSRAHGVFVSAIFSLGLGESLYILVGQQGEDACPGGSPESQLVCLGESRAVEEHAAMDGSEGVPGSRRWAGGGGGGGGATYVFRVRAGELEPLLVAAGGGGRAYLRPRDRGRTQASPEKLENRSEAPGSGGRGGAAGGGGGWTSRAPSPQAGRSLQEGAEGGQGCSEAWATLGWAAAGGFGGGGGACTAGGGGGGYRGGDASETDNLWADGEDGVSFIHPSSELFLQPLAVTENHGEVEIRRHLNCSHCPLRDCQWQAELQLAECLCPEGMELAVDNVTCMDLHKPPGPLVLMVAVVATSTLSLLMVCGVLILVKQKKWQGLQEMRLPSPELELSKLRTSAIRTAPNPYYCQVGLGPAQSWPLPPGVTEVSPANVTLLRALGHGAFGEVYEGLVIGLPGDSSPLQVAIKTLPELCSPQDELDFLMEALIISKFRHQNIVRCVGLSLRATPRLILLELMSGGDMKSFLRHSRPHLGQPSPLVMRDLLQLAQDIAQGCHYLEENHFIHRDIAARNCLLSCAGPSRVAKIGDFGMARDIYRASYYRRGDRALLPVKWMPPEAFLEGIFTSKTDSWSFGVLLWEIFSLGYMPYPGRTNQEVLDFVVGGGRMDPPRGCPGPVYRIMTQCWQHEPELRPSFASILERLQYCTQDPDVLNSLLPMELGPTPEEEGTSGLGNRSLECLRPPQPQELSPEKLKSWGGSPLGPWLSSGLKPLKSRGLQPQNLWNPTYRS

[21] = target: 456 kinases (of these 395 non-mutant kinases) (Homo sapiens, UniProt O43353); settings: RIPK2; 10 μM
[22] = target: 456 kinases (of these 395 non-mutant kinases) (Homo sapiens, UniProt P10721, A829P); settings: KIT(A829P); 10 μM
456 kinases (of these 395 non-mutant kinases) (Homo sapiens, UniProt P10721, A829P), sequence (P10721 26-976 A829P limits assumed): as the sequence (P10721 26-976 V559D limits assumed) above, with D534V, A804P counted along it

[23] = target: 456 kinases (of these 395 non-mutant kinases) (Homo sapiens, UniProt Q9Y616); settings: IRAK3; 10 μM
[24] = target: 456 kinases (of these 395 non-mutant kinases) (Homo sapiens, UniProt Q86UE8); settings: TLK2; 10 μM
[25] = target: 456 kinases (of these 395 non-mutant kinases) (Homo sapiens, UniProt P21802); settings: FGFR2; 10 μM
[26] = target: 456 kinases (of these 395 non-mutant kinases) (Homo sapiens, UniProt Q12866); settings: MERTK; 10 μM
[27] = target: 456 kinases (of these 395 non-mutant kinases) (Homo sapiens, UniProt P0C264); settings: SgK110; 10 μM
[28] = target: 456 kinases (of these 395 non-mutant kinases) (Homo sapiens, UniProt O75582); settings: 10 μM
[29] = target: 456 kinases (of these 395 non-mutant kinases) (Homo sapiens, UniProt Q9UKE5); settings: TNIK; 10 μM
[30] = target: 456 kinases (of these 395 non-mutant kinases) (Homo sapiens, UniProt Q6ZN16); settings: MAP3K15; 10 μM
[31] = target: 456 kinases (of these 395 non-mutant kinases) (Homo sapiens, UniProt P49336); settings: CDK8; 10 μM

Measured: % Ctrl @ 10 μM

CCc1ccccc1NC(=O)c1c(C)nsc1Nc1cnc2cc(F)ccc2n1 [Example 20, N-(2-Ethylphenyl)-5-[(6-fluoroquinoxalin-2-yl)amino]-3-methyl-1,2-thiazole-4-carboxamide]
98 % Ctrl: [26]
86 % Ctrl: [2]
94 % Ctrl: [10] | [19] | [22] | [24]
61 % Ctrl: [16]
100 % Ctrl: [1] | [3] | [5] | [6] | [8]; ABL1(Q252H)-nonphosphorylated | [8]; ABL1(Q252H)-phosphorylated | [9] | [11] | [12] | [13] | [14] | [15]; FLT3-autoinhibited | [18] | [23] | [27] | [28]; RPS6KA5(Kin.Dom.1-N-terminal) | [28]; RPS6KA5(Kin.Dom.2-C-terminal) | [29] | [30] | [31]
75 % Ctrl: [4]
93 % Ctrl: [17]
88 % Ctrl: [7]
68 % Ctrl: [20]
80 % Ctrl: [15]; FLT3 | [25]
66 % Ctrl: [21]
